Series [1] has as its system O=C(Oc1cncc(Br)c1)c1ccco1. In words: Activity of SARS coronavirus 3CL proteinase assessed as compound hydrolysis by HPLC. The settings on record: Severe acute respiratory syndrome-related coronavirus.
Series [2] relates to O=C(Oc1cncc(Br)c1)c1ccco1. In words: Ratio of Kcat to Km of SARS coronavirus 3CL proteinase. To be noted: Severe acute respiratory syndrome-related coronavirus.
Series [3] deals with Hepatovirus A. Briefly: Inhibition of hepatitis A virus 3C proteinase at 0.25 uM by microplate assay.
Series [4] in a line: Inhibition of hepatitis A virus 3C proteinase by microplate assay. Set-up: species or system Hepatovirus A.
Series [5] has as its system Hepatovirus A. Briefly: Inhibition of hepatitis A virus 3C proteinase at 10 uM by microplate assay.
Series [6] concerns Hepatovirus A. Briefly: Inhibition of hepatitis A virus 3C proteinase at 1 uM by microplate assay.
In series [7] the target is Replicase polyprotein 1a (Severe acute respiratory syndrome-related coronavirus, UniProt P0C6U8). In words: Inhibition of SARS coronavirus 3CL proteinase.

Where “and” joins values, the source holds several entries; their conditions need not be identical. Equal entries are not always repeated. Bounds are passed on as bounds.

The results in this text go back to ChEMBL document CHEMBL1150252, “Heteroaromatic ester inhibitors of hepatitis A virus 3C proteinase: Evaluation of mode of action” (Bioorg Med Chem, 2008).

Consider “Replicase polyprotein 1a (Severe acute respiratory syndrome-related coronavirus) (from UniProt P0C6U8)”, for which, in series [1], the Km came to 0.026 µM and the kcat worked out at 17 ×10⁻⁵ /s. For the same molecule, the kcat/Km in series [2] was determined as 7 ×10³ /M/s.
In the case of `O=C(Oc1cncc(Cl)c1)c1cccs1`, the inhibition is 50% in series [3]; 93% and > 90% in series [5]; > 90% in series [6]. The results for the IC50 in series [4] and in series [7] were 470 nM and 500 nM, respectively.

In general, Km refers to the concentration of substrate that gives half-maximal velocity. As usually defined, the inhibition is how much of the control response was suppressed. Low readings indicate little suppression, high ones strong suppression. As usually defined, the IC50 is the midpoint of a concentration-inhibition curve. The low end stands for greater potency in that assay, the high end for weaker potency in that assay.
